According to the supplement of paper PMC4723716:
Where a name gives a salt, the structure may show the parent alone.

Test system: Plasmodium falciparum NF54 gametocytes
Settings: 384, incubation time: 72 h
How it was run: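 IC50 values came from a standard logistic regression fit. The underlying data were produced by incubating stage I–V P. falciparum NF54 gametocytes with compound dilutions for 72 hr at 37°C in low oxygen, in either the serum-containing two-step or the serum-free one-step format. Live cells were then stained with MitoTracker Red CMXRos, counted by high-content imaging and normalised to the plate mean of vehicle wells.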

[1] = gametocyte stage: Stage I Dose Response IC50 (µM), assay protocol: SaLSSA
[2] = gametocyte stage: Stage I Dose Response IC50 (µM), assay protocol: TSSA
[3] = gametocyte stage: Stage II Dose Response IC50 (µM), assay protocol: SaLSSA
[4] = gametocyte stage: Stage II Dose Response IC50 (µM), assay protocol: TSSA
[5] = gametocyte stage: Stage III Dose Response IC50 (µM), assay protocol: SaLSSA
[6] = gametocyte stage: Stage III Dose Response IC50 (µM), assay protocol: TSSA
[7] = gametocyte stage: Stage IV Dose Response IC50 (µM), assay protocol: SaLSSA
[8] = gametocyte stage: Stage IV Dose Response IC50 (µM), assay protocol: TSSA
[9] = gametocyte stage: Stage V Dose Response IC50 (µM), assay protocol: SaLSSA
[10] = gametocyte stage: Stage V Dose Response IC50 (µM), assay protocol: TSSA

With `COc1cc(NC(C)CCCN)c2ncccc2c1` (stereo not given) [Primaquine] the “IC50 of gametocyte viability” value [1] was 2.47 µM, the “IC50 of gametocyte viability” value [2] was 3.35 µM and the “IC50 of gametocyte viability” value [3] was 2.25 µM. The “IC50 of gametocyte viability” value [4] was 6.41 µM, the “IC50 of gametocyte viability” value [5] was 5.4 µM and the “IC50 of gametocyte viability” value [6] was 7.96 µM. The “IC50 of gametocyte viability” value [7] was 5.15 µM, the “IC50 of gametocyte viability” value [8] was 9.44 µM and the “IC50 of gametocyte viability” value [9] was 6.5 µM. For the same compound, the “IC50 of gametocyte viability” value [10] was > 11.3 µM.

In the case of `C[C@@H]1CC[C@H]2[C@@H](C)C(=O)O[C@@H]3O[C@@]4(C)CC[C@@H]1[C@]32OO4` [Artemisinin], the “IC50 of gametocyte viability” value [1] is reported as 0.0243 µM, the “IC50 of gametocyte viability” value [3] is reported as 0.0204 µM and the “IC50 of gametocyte viability” value [5] is reported as 0.0118 µM. For the same compound, the “IC50 of gametocyte viability” value [7] was 0.0373 µM and the “IC50 of gametocyte viability” value [9] was > 12.5 µM.

For `CCc1nc(N)nc(N)c1-c1ccc(Cl)cc1` [pyrimethamine], the “IC50 of gametocyte viability” value [1] was > 12.5 µM, the “IC50 of gametocyte viability” value [3] was > 12.5 µM and the “IC50 of gametocyte viability” value [5] was > 12.5 µM. The “IC50 of gametocyte viability” value [7] was > 12.5 µM and the “IC50 of gametocyte viability” value [9] was > 12.5 µM.

With `c1cc([C@H]2CC[C@]3(CC2)OO[C@]2(O3)C3CC4CC(C3)CC2C4)ccc1OCCN1CCOCC1` [OZ 439 mesylate] the “IC50 of gametocyte viability” value [2] was 0.0102 µM, the “IC50 of gametocyte viability” value [4] was 0.01 µM and the “IC50 of gametocyte viability” value [6] was 0.00852 µM. For the same compound, the “IC50 of gametocyte viability” value [8] was 0.00553 µM and the “IC50 of gametocyte viability” value [10] was > 12.5 µM.

`Clc1ccc2c(N3CCN(CCCN4CCN(c5ccnc6cc(Cl)ccc56)CC4)CC3)ccnc2c1` [Piperaquine phosphate] was tested, and the “IC50 of gametocyte viability” value [2] was 0.0223 µM, the “IC50 of gametocyte viability” value [4] was 0.0262 µM and the “IC50 of gametocyte viability” value [6] was > 4.17 µM. The “IC50 of gametocyte viability” value [8] was > 4.17 µM and the “IC50 of gametocyte viability” value [10] was > 4.17 µM.
